Test systems include OVCAR-5 ovarian; NCI/ADR-RES ovarian; RXF 393 renal; KM12 colon; SF-268 CNS; COLO 205 colon; K-562 leukemia; MDA-MB-435; SK-MEL-28 melanoma; HT29 colon.
What all share (assay): NCI-60 cell line screen, 48 h

Each structure is given as a SMILES string. Several values for one entry are separate records, joined by “and”; a condition that tells them apart may be missing. Equal entries are not always repeated.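 How tested: cells in 96-well plates exposed to compound for 48 hours at five concentrations. GI50 is the concentration that inhibits growth by half. At the TGI there is no net growth.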

As for `C/C=C/[C@@H]1OC(=O)C2=C[C@@H](O)[C@@H](/C=C/C)O[C@H]21`, the GI50 in the assay on OVCAR-5 ovarian was 13.6 µM; in the assay on NCI/ADR-RES ovarian, 19.2 µM; in the assay on RXF 393 renal it was 6.27 µM; in the assay with KM12 colon, 16.9 µM; with SF-268 CNS, 24.1 µM; with COLO 205 colon, 2.2 µM. Moreover, the GI50 in the assay on K-562 leukemia was 1.84 µM; in the assay with MDA-MB-435, 10.4 µM; in the assay on SK-MEL-28 melanoma it was 6.38 µM; with HT29 colon it was 2.09 µM. Moreover, the TGI is 35 µM in the assay with OVCAR-5 ovarian; > 56.2 µM with NCI/ADR-RES ovarian; 28.8 µM with RXF 393 renal; 38.9 µM in the assay with KM12 colon; > 82.5 µM in the assay on SF-268 CNS; 6.9 µM in the assay on COLO 205 colon. The results for the TGI in the assay with MDA-MB-435, in the assay with SK-MEL-28 melanoma and in the assay on HT29 colon were 25.5 µM, 12.6 µM and 5.89 µM, respectively.
As to `O=C(CN(/C=C/C(=O)C(F)(F)F)c1ccccc1)c1ccc(Cl)c(Cl)c1`, the GI50 is 17 µM with OVCAR-5 ovarian; 15.2 µM in the assay with NCI/ADR-RES ovarian; 17.1 µM in the assay with RXF 393 renal; 12.3 µM in the assay with KM12 colon; 18.4 µM in the assay with SF-268 CNS; 19.5 µM with COLO 205 colon. In addition, the GI50 in the assay with K-562 leukemia is 15.7 µM; with MDA-MB-435, 14.9 µM; in the assay with SK-MEL-28 melanoma it was 23.9 µM; in the assay with HT29 colon it was 34.1 µM. Also, the TGI was 33.9 µM in the assay on OVCAR-5 ovarian; 31.3 µM in the assay with NCI/ADR-RES ovarian; 52.5 µM with RXF 393 renal; 28.4 µM with KM12 colon; 40.7 µM in the assay on SF-268 CNS; 42.4 µM with COLO 205 colon. In addition, the TGI with K-562 leukemia is 37.6 µM; in the assay with MDA-MB-435 it was 31.9 µM; in the assay on SK-MEL-28 melanoma, 56.2 µM; in the assay on HT29 colon it was > 100 µM.
In the case of `COC(=O)C(F)C(Br)C(=O)OC` (centres undefined), the TGI in the assay with OVCAR-5 ovarian was found to be 31.8 µM; in the assay on NCI/ADR-RES ovarian, 8.93 µM; in the assay with RXF 393 renal it was 6.95 µM; in the assay on KM12 colon it was 50.6 µM; with SF-268 CNS, 24.4 µM; with COLO 205 colon it was 3.46 µM. For the same compound, the TGI with K-562 leukemia was found to be 3.72 µM; in the assay with MDA-MB-435, 27.3 µM; in the assay on SK-MEL-28 melanoma, 34.3 µM; in the assay on HT29 colon it was 5.43 µM.
`CCCc1cc(=O)n2c(C(=O)Nc3ccccc3OC)c(C(=O)Nc3ccc(F)cc3)sc2n1`: the GI50 in the assay with OVCAR-5 ovarian was 69.3 µM; in the assay with NCI/ADR-RES ovarian, 39.2 µM; in the assay on RXF 393 renal, 5.14 µM; in the assay on KM12 colon it was 49.8 µM; with SF-268 CNS, 14.3 µM; in the assay on COLO 205 colon, 38.2 µM. Further, the GI50 was 4.64 µM in the assay with K-562 leukemia, 36.5 µM with MDA-MB-435, 22 µM in the assay with SK-MEL-28 melanoma and 44.5 µM with HT29 colon. Further, the TGI in the assay with OVCAR-5 ovarian is > 160 µM; in the assay with NCI/ADR-RES ovarian, > 160 µM; with RXF 393 renal it was 12.1 µM; in the assay with KM12 colon, > 160 µM; with SF-268 CNS, 38 µM; with COLO 205 colon, > 160 µM. In addition, the TGI is 33.1 µM with K-562 leukemia, > 160 µM with MDA-MB-435, 61.8 µM in the assay with SK-MEL-28 melanoma and > 160 µM in the assay with HT29 colon.
Regarding `c1ccc(P(CCP(CCP(c2ccccc2)c2ccccc2)c2ccccc2)CCP(c2ccccc2)c2ccccc2)cc1` (centres undefined), the TGI with OVCAR-5 ovarian, in the assay with NCI/ADR-RES ovarian, in the assay on RXF 393 renal, in the assay on KM12 colon, in the assay on SF-268 CNS and in the assay with COLO 205 colon was > 10 µM in each case. The TGI with K-562 leukemia, in the assay with MDA-MB-435, with SK-MEL-28 melanoma and with HT29 colon was > 10 µM each time. In addition, the GI50 with KM12 colon is > 10 µM and 1.39 µM; in the assay with SF-268 CNS, > 10 µM and 3.71 µM; with COLO 205 colon it was > 10 µM and 2.08 µM; with MDA-MB-435, > 10 µM and 3.67 µM; in the assay with SK-MEL-28 melanoma, > 10 µM and 2.01 µM.
`Nc1cc(N)c2nc(-c3ccccc3)c(NCc3ccc(F)cc3)nc2c1`: the GI50 with OVCAR-5 ovarian is 2.62 µM; in the assay on NCI/ADR-RES ovarian, 2.46 µM; in the assay on RXF 393 renal, 12.3 µM; in the assay on KM12 colon, 2.82 µM; in the assay with SF-268 CNS, 2.81 µM; in the assay with COLO 205 colon, 2.53 µM. The GI50 in the assay with K-562 leukemia was 4.39 µM; with MDA-MB-435, 2.01 µM; in the assay on SK-MEL-28 melanoma, 1.9 µM; with HT29 colon, 3.19 µM. For the same compound, the TGI in the assay on OVCAR-5 ovarian is 7.61 µM; with NCI/ADR-RES ovarian it was 5.76 µM; in the assay with RXF 393 renal, 27.2 µM; in the assay on KM12 colon, 7.38 µM; with SF-268 CNS, 7.54 µM; in the assay with COLO 205 colon, 6.18 µM. The TGI with K-562 leukemia was > 100 µM; with MDA-MB-435 it was 3.74 µM; in the assay on SK-MEL-28 melanoma, 3.77 µM; in the assay with HT29 colon, 12.5 µM.
On to `Cn1ccnc1C(=O)/C=C/c1ccc(CC(=O)Nc2ccc(C(F)(F)F)cc2)cc1`, for which the GI50 is 2.45 µM in the assay on OVCAR-5 ovarian; 4.32 µM in the assay on NCI/ADR-RES ovarian; 2.72 µM in the assay with RXF 393 renal; 3.23 µM in the assay with KM12 colon; 3.03 µM with SF-268 CNS; 3.17 µM in the assay on COLO 205 colon. The GI50 is 0.614 µM with K-562 leukemia, 3.88 µM in the assay with MDA-MB-435, 2.92 µM in the assay on SK-MEL-28 melanoma and 3.96 µM in the assay with HT29 colon. Besides, the TGI worked out at 5.21 µM in the assay with OVCAR-5 ovarian; 10.9 µM in the assay on NCI/ADR-RES ovarian; 5.49 µM in the assay on RXF 393 renal; 8.69 µM with KM12 colon; 7.88 µM in the assay with SF-268 CNS; 6.17 µM in the assay with COLO 205 colon. Moreover, the TGI with K-562 leukemia was > 16.7 µM; in the assay with MDA-MB-435 it was 12.5 µM; in the assay on SK-MEL-28 melanoma, 6.25 µM; in the assay with HT29 colon, 9.02 µM.

The values above are taken from PubChem BioAssay (NCI).
